41 molecules from ChEMBL document CHEMBL1287643, “3D-QSAR pharmacophore modeling and in silico screening of new Bcl-xl inhibitors” (Eur J Med Chem, 2010) can be followed below.

The assay concerns the target Bcl-2-like protein 1 (Homo sapiens, UniProt Q07817). Briefly: Inhibition of Bcl-XL.

Bcl-2-like protein 1, sequence (Q07817 whole entry): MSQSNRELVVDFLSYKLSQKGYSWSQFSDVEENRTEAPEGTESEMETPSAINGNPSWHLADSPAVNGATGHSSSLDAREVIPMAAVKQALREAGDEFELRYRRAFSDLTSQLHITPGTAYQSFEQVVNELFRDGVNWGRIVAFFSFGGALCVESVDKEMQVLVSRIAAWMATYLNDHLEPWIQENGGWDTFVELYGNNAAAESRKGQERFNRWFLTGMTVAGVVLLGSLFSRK

For the molecule `COc1ccccc1CC1(OC)CCN(c2ccc(C(=O)NS(=O)(=O)c3ccc(NC(CCN(C)C)CSc4ccccc4)c([N+](=O)[O-])c3)cc2)CC1` (stereo unspecified), the EC50 is 0.15 µM.
The molecule `COC1(Cc2cccc(Cl)c2)CCN(c2ccc(C(=O)NS(=O)(=O)c3ccc(NC(CCN(C)C)CSc4ccccc4)c([N+](=O)[O-])c3)cc2)CC1` (stereo unspecified) showed an EC50 of 0.25 µM. Compared with the last molecule, the EC50 is about 1.7-fold higher.
The molecule `CN(C)CCC(CSc1ccccc1)Nc1ccc(S(=O)(=O)NC(=O)c2ccc(N3CCN(Cc4ccccc4-c4ccc(S(C)(=O)=O)cc4)CC3)cc2)cc1[N+](=O)[O-]` (stereo unspecified) had an EC50 of 0.46 µM. This EC50 lies about 1.8-fold higher than the previous one.
`CN(C)CCC(CSc1ccccc1)Nc1ccc(S(=O)(=O)NC(=O)c2ccc(N3CCN(Cc4ccccc4S(C)(=O)=O)CC3)cc2)cc1[N+](=O)[O-]` (stereo unspecified) had an EC50 of 5.5 µM.
`CN(C)CCC(CSc1ccccc1)Nc1ccc(S(=O)(=O)NC(=O)c2ccc(N3CCC(=Cc4ccccc4C#N)CC3)cc2)cc1[N+](=O)[O-]` (stereo unspecified) had an EC50 of 1.1 µM.
Take `CN(C)CCC(CSc1ccccc1)Nc1ccc(S(=O)(=O)NC(=O)c2ccc(N3CCN(Cc4ccccc4NC4CCCCC4)CC3)cc2)cc1[N+](=O)[O-]` (stereo unspecified): a half-maximal response (EC50) required 0.661 µM. Compared with the last molecule, the EC50 is about 1.7-fold lower.
The same measure for `CN(C)CCC(CSc1ccccc1)Nc1ccc(S(=O)(=O)NC(=O)c2ccc(N3CCN(Cc4ccccc4C4CCCCC4)CC3)cc2)cc1[N+](=O)[O-]` (stereo unspecified): 0.34 µM.
The molecule `COC1(Cc2ccccc2C)CCN(c2ccc(C(=O)NS(=O)(=O)c3ccc(NC(CCN(C)C)CSc4ccccc4)c([N+](=O)[O-])c3)cc2)CC1` (stereo unspecified) gave an EC50 of 0.15 µM. Against the preceding molecule, the EC50 is about 2.3-fold lower.
`COc1cccc(-c2ccccc2CN2CCN(c3ccc(C(=O)NS(=O)(=O)c4ccc(NC(CCN(C)C)CSc5ccccc5)c([N+](=O)[O-])c4)cc3)CC2)c1` (stereo unspecified) gave an EC50 of 0.38 µM. Against the preceding molecule, the EC50 is about 2.5-fold higher.
Under `CN(C)CCC(CSc1ccccc1)Nc1ccc(S(=O)(=O)NC(=O)c2ccc(N3CCN(Cc4ccccc4-c4ccc(-c5ccccc5)cc4)CC3)cc2)cc1[N+](=O)[O-]` (stereo unspecified) stands 0.022 µM.
The same measure for `COc1ccccc1CN1CCN(c2ccc(C(=O)NS(=O)(=O)c3ccc(NC(CCN(C)C)CSc4ccccc4)c([N+](=O)[O-])c3)cc2)CC1` (stereo unspecified): 0.39 µM; for `CN(C)CCC(CSc1ccccc1)Nc1ccc(S(=O)(=O)NC(=O)c2ccc(N3CCN(Cc4ccccc4C(F)(F)F)CC3)cc2)cc1[N+](=O)[O-]` (stereo unspecified): 0.39 µM; for `CN(C)CCC(CSc1ccccc1)Nc1ccc(S(=O)(=O)NC(=O)c2ccc(N3CCN(Cc4ccccc4)CC3)cc2)cc1[N+](=O)[O-]` (stereo unspecified): 1.1 µM.
The molecule `COC1(CC2CCCCC2)CCN(c2ccc(C(=O)NS(=O)(=O)c3ccc(NC(CCN(C)C)CSc4ccccc4)c([N+](=O)[O-])c3)cc2)CC1` (stereo unspecified) gave an EC50 of 0.32 µM. This EC50 is about 3.4-fold lower than that of the molecule before.
Regarding `CN(C)CCC(CSc1ccccc1)Nc1ccc(S(=O)(=O)NC(=O)c2ccc(N3CCC(=Cc4ccc(Cl)cc4)CC3)cc2)cc1[N+](=O)[O-]` (stereo unspecified), the EC50 was 0.619 µM.
The same measure for `COC1(Cc2ccccc2Cl)CCN(c2ccc(C(=O)NS(=O)(=O)c3ccc(NC(CCN(C)C)CSc4ccccc4)c([N+](=O)[O-])c3)cc2)CC1` (stereo unspecified): 0.23 µM.
The molecule `CN(C)CCC(CSc1ccccc1)Nc1ccc(S(=O)(=O)NC(=O)c2ccc(N3CCN(Cc4ccccc4-c4ccccc4)CC3)cc2)cc1[N+](=O)[O-]` (stereo unspecified) showed an EC50 of 0.018 µM.
As to `CN(C)CCC(CSc1ccccc1)Nc1ccc(S(=O)(=O)NC(=O)c2ccc(N3CCN(Cc4ccccc4-c4cccc(Cl)c4)CC3)cc2)cc1[N+](=O)[O-]` (stereo unspecified), the EC50 was 0.18 µM.
For `CN(C)CCC(CSc1ccccc1)Nc1ccc(S(=O)(=O)NC(=O)c2ccc(N3CCC(=Cc4ccccc4C(F)(F)F)CC3)cc2)cc1[N+](=O)[O-]` (stereo unspecified), the concentration giving a half-maximal response (EC50) is 0.15 µM.
The molecule `CN(C)CCC(CSc1ccccc1)Nc1ccc(S(=O)(=O)NC(=O)c2ccc(N3CCN(Cc4ccccc4-c4ccc(C(F)(F)F)cc4)CC3)cc2)cc1[N+](=O)[O-]` (stereo unspecified) showed an EC50 of 0.04 µM.
As for `Cc1ccccc1CN1CCN(c2ccc(C(=O)NS(=O)(=O)c3ccc(NC(CCN(C)C)CSc4ccccc4)c([N+](=O)[O-])c3)cc2)CC1` (stereo unspecified), it took 0.41 µM to reach a half-maximal effect (EC50).
`CN(C)CCC(CSc1ccccc1)Nc1ccc(S(=O)(=O)NC(=O)c2ccc(N3CCN(Cc4ccccc4-c4ccccc4Cl)CC3)cc2)cc1[N+](=O)[O-]` (stereo unspecified) showed an EC50 of 0.056 µM.
Turning to `CN(C)CCC(CSc1ccccc1)Nc1ccc(S(=O)(=O)NC(=O)c2ccc(N3CCC(=Cc4ccc(F)cc4)CC3)cc2)cc1[N+](=O)[O-]` (stereo unspecified), the EC50 is 0.38 µM.
The same measure for `COC1(Cc2ccccc2-c2ccccc2)CCN(c2ccc(C(=O)NS(=O)(=O)c3ccc(NC(CCN(C)C)CSc4ccccc4)c([N+](=O)[O-])c3)cc2)CC1` (stereo unspecified): 0.035 µM.
The same measure for `COC1(Cc2ccccc2Br)CCN(c2ccc(C(=O)NS(=O)(=O)c3ccc(NC(CCN(C)C)CSc4ccccc4)c([N+](=O)[O-])c3)cc2)CC1` (stereo unspecified): 0.1 µM; for `CN(C)CCC(CSc1ccccc1)Nc1ccc(S(=O)(=O)NC(=O)c2ccc(N3CCC(=Cc4cccnc4)CC3)cc2)cc1[N+](=O)[O-]` (stereo unspecified): 1.9 µM.
In turn, `COC1(Cc2ccc(-c3ccccc3)cc2)CCN(c2ccc(C(=O)NS(=O)(=O)c3ccc(NC(CCN(C)C)CSc4ccccc4)c([N+](=O)[O-])c3)cc2)CC1` (stereo unspecified) showed an EC50 of 0.6 µM.
The same measure for `COC1(Cc2ccccc2)CCN(c2ccc(C(=O)NS(=O)(=O)c3ccc(NC(CCN(C)C)CSc4ccccc4)c([N+](=O)[O-])c3)cc2)CC1` (stereo unspecified): 0.681 µM; for `COc1ccc(-c2ccccc2CN2CCN(c3ccc(C(=O)NS(=O)(=O)c4ccc(NC(CCN(C)C)CSc5ccccc5)c([N+](=O)[O-])c4)cc3)CC2)cc1` (stereo unspecified): 0.03 µM; for `CN(C)CCC(CSc1ccccc1)Nc1ccc(S(=O)(=O)NC(=O)c2ccc(N3CCC(=Cc4ccccc4-c4ccccc4)CC3)cc2)cc1[N+](=O)[O-]` (stereo unspecified): 0.16 µM.
In turn, `CN(C)CCC(CSc1ccccc1)Nc1ccc(S(=O)(=O)NC(=O)c2ccc(N3CCN(Cc4ccccc4-c4ccc(F)cc4)CC3)cc2)cc1[N+](=O)[O-]` (stereo unspecified) showed an EC50 of 0.13 µM.
For `CN(C)CCC(CSc1ccccc1)Nc1ccc(S(=O)(=O)NC(=O)c2ccc(N3CCC(=Cc4ccccc4F)CC3)cc2)cc1[N+](=O)[O-]` (stereo unspecified), the concentration giving a half-maximal response (EC50) is 0.25 µM. This EC50 is about 1.9-fold higher than that of the molecule before.
Take `COC1(CC(C)C)CCN(c2ccc(C(=O)NS(=O)(=O)c3ccc(NC(CCN(C)C)CSc4ccccc4)c([N+](=O)[O-])c3)cc2)CC1` (stereo unspecified): the EC50 is 0.579 µM.
The same measure for `CN(C)CCC(CSc1ccccc1)Nc1ccc(S(=O)(=O)NC(=O)c2ccc(N3CCC(=Cc4ccccn4)CC3)cc2)cc1[N+](=O)[O-]` (stereo unspecified): 0.55 µM; for `COC1(Cc2ccccc2F)CCN(c2ccc(C(=O)NS(=O)(=O)c3ccc(NC(CCN(C)C)CSc4ccccc4)c([N+](=O)[O-])c3)cc2)CC1` (stereo unspecified): 0.18 µM; for `COC1(CC(C)(C)C)CCN(c2ccc(C(=O)NS(=O)(=O)c3ccc(NC(CCN(C)C)CSc4ccccc4)c([N+](=O)[O-])c3)cc2)CC1` (stereo unspecified): 0.75 µM.
The same measure for `COc1ccccc1C=C1CCN(c2ccc(C(=O)NS(=O)(=O)c3ccc(NC(CCN(C)C)CSc4ccccc4)c([N+](=O)[O-])c3)cc2)CC1` (stereo unspecified): 0.3 µM; for `CN(C)CCC(CSc1ccccc1)Nc1ccc(S(=O)(=O)NC(=O)c2ccc(N3CCC(=Cc4ccc(C(F)(F)F)cc4)CC3)cc2)cc1[N+](=O)[O-]` (stereo unspecified): 2.6 µM; for `CSc1ccccc1CN1CCN(c2ccc(C(=O)NS(=O)(=O)c3ccc(NC(CCN(C)C)CSc4ccccc4)c([N+](=O)[O-])c3)cc2)CC1` (stereo unspecified): 0.0951 µM.
With `CN(C)CCC(CSc1ccccc1)Nc1ccc(S(=O)(=O)NC(=O)c2ccc(N3CCN(Cc4ccccc4-c4cccnc4)CC3)cc2)cc1[N+](=O)[O-]` (stereo unspecified), the EC50 was 0.8 µM.
With `COC1(Cc2ccc(Cl)cc2)CCN(c2ccc(C(=O)NS(=O)(=O)c3ccc(NC(CCN(C)C)CSc4ccccc4)c([N+](=O)[O-])c3)cc2)CC1` (stereo unspecified), the EC50 is 0.4 µM.
